From PMC11699025 (Natural Products and Bioprospecting, 2025)
Values joined by “and” are separate entries in the source; they are usually repeats but may differ in a detail not shown here. Identical values can stand only once.

Experiments:
Format in all cases: binding
SARS-CoV-2 PLpro T257A = SARS-CoV-2 PLpro T257A (Severe acute respiratory syndrome coronavirus 2, UniProt P0DTD1, T1820A)
SARS-CoV-2 PLpro Y268A = SARS-CoV-2 PLpro Y268A (Severe acute respiratory syndrome coronavirus 2, UniProt P0DTD1, Y1831A)
SARS-CoV-2 PLpro R166A = SARS-CoV-2 PLpro R166A (Severe acute respiratory syndrome coronavirus 2, UniProt P0DTD1, R1729A)
SARS-CoV-2 Mpro F3A = SARS-CoV-2 Mpro F3A (Severe acute respiratory syndrome coronavirus 2, UniProt P0DTD1, F3266A)
SARS-CoV-2 Mpro E288A = SARS-CoV-2 Mpro E288A (Severe acute respiratory syndrome coronavirus 2, UniProt P0DTD1, E3551A)
SARS-CoV-2 PLpro K254A = SARS-CoV-2 PLpro K254A (Severe acute respiratory syndrome coronavirus 2, UniProt P0DTD1, K1817A)
SARS-CoV-2 PLpro F258A = SARS-CoV-2 PLpro F258A (Severe acute respiratory syndrome coronavirus 2, UniProt P0DTD1, F1821A)
SARS-CoV-2 Mpro F291A = SARS-CoV-2 Mpro F291A (Severe acute respiratory syndrome coronavirus 2, UniProt P0DTD1, F3554A)
SARS-CoV-2 Mpro R4A = SARS-CoV-2 Mpro R4A (Severe acute respiratory syndrome coronavirus 2, UniProt P0DTD1, R3267A)
SARS-CoV-2 PLpro Y264A = SARS-CoV-2 PLpro Y264A (Severe acute respiratory syndrome coronavirus 2, UniProt P0DTD1, Y1827A)
SARS-CoV-2 Mpro N142A = SARS-CoV-2 Mpro N142A (Severe acute respiratory syndrome coronavirus 2, UniProt P0DTD1, N3405A)
SARS-CoV-2 Mpro K5A = SARS-CoV-2 Mpro K5A (Severe acute respiratory syndrome coronavirus 2, UniProt P0DTD1, K3268A)
SARS-CoV-2 Mpro Y126A = SARS-CoV-2 Mpro Y126A (Severe acute respiratory syndrome coronavirus 2, UniProt P0DTD1, Y3389A)
SARS-CoV-2 PLpro Y273A = SARS-CoV-2 PLpro Y273A (Severe acute respiratory syndrome coronavirus 2, UniProt P0DTD1, Y1836A)
SARS-CoV-2 PLpro E252A = SARS-CoV-2 PLpro E252A (Severe acute respiratory syndrome coronavirus 2, UniProt P0DTD1, E1815A)
SARS-CoV-2 PLpro L253A = SARS-CoV-2 PLpro L253A (Severe acute respiratory syndrome coronavirus 2, UniProt P0DTD1, L1816A)
SARS-CoV-2 PLpro Y251A = SARS-CoV-2 PLpro Y251A (Severe acute respiratory syndrome coronavirus 2, UniProt P0DTD1, Y1814A)
SARS-CoV-2 PLpro V303A = SARS-CoV-2 PLpro V303A (Severe acute respiratory syndrome coronavirus 2, UniProt P0DTD1, V1866A)
SARS-CoV-2 PLpro D164A = SARS-CoV-2 PLpro D164A (Severe acute respiratory syndrome coronavirus 2, UniProt P0DTD1, D1727A)

Cc1cc(O)c(O)c(Oc2cc(C)cc(O)c2Oc2cc(C)cc(O)c2O)c1 [Sydowiol B, sydowiol B] was tested, and the Tm value (SARS-CoV-2 PLpro T257A) was 47.76 ± 0.27 (4.16) ℃, the “△Tm” value (SARS-CoV-2 PLpro T257A) was 47.76 ± 0.27 (4.16) ℃ and the Tm value (SARS-CoV-2 PLpro Y268A) was 50.46 ± 0.65 (3.82) ℃. For the same compound, the “△Tm” value (SARS-CoV-2 PLpro Y268A) was 50.46 ± 0.65 (3.82) ℃, the Tm value (SARS-CoV-2 PLpro R166A) was 50.86 ± 0.55 (3.18) ℃ and the “△Tm” value (SARS-CoV-2 PLpro R166A) was 50.86 ± 0.55 (3.18) ℃. The Tm value (SARS-CoV-2 Mpro F3A) was 53.05 ± 0.12 (1.05) ℃ and 52.84 ± 0.19 (0.84) ℃ and 53.05 ± 0.03 (1.05) ℃, the “△Tm” value (SARS-CoV-2 Mpro F3A) was 53.05 ± 0.12 (1.05) ℃ and 52.84 ± 0.19 (0.84) ℃ and 53.05 ± 0.03 (1.05) ℃ and the Tm value (SARS-CoV-2 Mpro E288A) was 54.03 ± 0.10 (1.14) ℃ and 53.21 ± 0.11 (0.32) ℃. For the same compound, the “△Tm” value (SARS-CoV-2 Mpro E288A) was 54.03 ± 0.10 (1.14) ℃ and 53.21 ± 0.11 (0.32) ℃, the Tm value (SARS-CoV-2 PLpro K254A) was 46.61 ± 0.16 (3.31) ℃ and 46.23 ± 0.29 (2.93) ℃ and the “△Tm” value (SARS-CoV-2 PLpro K254A) was 46.61 ± 0.16 (3.31) ℃ and 46.23 ± 0.29 (2.93) ℃. For the same compound, the Tm value (SARS-CoV-2 PLpro F258A) was 47.68 ± 0.06 °C, the Tm value (SARS-CoV-2 Mpro F291A) was 61.29 ± 0.01 (-0.08) ℃ and 61.37 ± 0.01 (0.00) ℃ and 61.44 ± 0.01 (0.07) ℃ and the “△Tm” value (SARS-CoV-2 Mpro F291A) was 61.29 ± 0.01 (-0.08) ℃ and 61.37 ± 0.01 (0.00) ℃ and 61.44 ± 0.01 (0.07) ℃. For the same compound, the Tm value (SARS-CoV-2 Mpro R4A) was 54.54 ± 0.06 (0.84) ℃ and 54.25 ± 0.27 (0.55) ℃ and 54.16 ± 0.03 (0.46) ℃, the “△Tm” value (SARS-CoV-2 Mpro R4A) was 54.54 ± 0.06 (0.84) ℃ and 54.25 ± 0.27 (0.55) ℃ and 54.16 ± 0.03 (0.46) ℃ and the Tm value (SARS-CoV-2 PLpro Y264A) was 46.21 ± 0.86 (0.01) ℃ and 45.93 ± 0.03 (-0.27) ℃ and 46.48 ± 0.43 (0.28) ℃. The “△Tm” value (SARS-CoV-2 PLpro Y264A) was 46.21 ± 0.86 (0.01) ℃ and 45.93 ± 0.03 (-0.27) ℃ and 46.48 ± 0.43 (0.28) ℃, the Tm value (SARS-CoV-2 Mpro N142A) was 58.18 ± 0.03 (5.56) ℃ and 57.22 ± 0.07 (4.60) ℃ and 56.43 ± 0.24 (3.81) ℃ and the “△Tm” value (SARS-CoV-2 Mpro N142A) was 58.18 ± 0.03 (5.56) ℃ and 57.22 ± 0.07 (4.60) ℃ and 56.43 ± 0.24 (3.81) ℃. The Tm value (SARS-CoV-2 Mpro K5A) was 47.98 ± 0.07 (0.63) ℃, the “△Tm” value (SARS-CoV-2 Mpro K5A) was 47.98 ± 0.07 (0.63) ℃ and the Tm value (SARS-CoV-2 Mpro Y126A) was 47.88 ± 0.22 (1.58) ℃. For the same compound, the “△Tm” value (SARS-CoV-2 Mpro Y126A) was 47.88 ± 0.22 (1.58) ℃, the Tm value (SARS-CoV-2 PLpro Y273A) was 51.09 ± 0.23 (-0.85) ℃ and 50.59 ± 0.10 (-1.35) ℃ and 51.21 ± 0.00 (-0.73) ℃ and the “△Tm” value (SARS-CoV-2 PLpro Y273A) was 51.09 ± 0.23 (-0.85) ℃ and 50.59 ± 0.10 (-1.35) ℃ and 51.21 ± 0.00 (-0.73) ℃. For the same compound, the Tm value (SARS-CoV-2 PLpro E252A) was 44.10 ± 0.20 (0.75) ℃ and 45.88 ± 0.48 (2.53) ℃ and 47.86 ± 0.13 (4.51) ℃, the “△Tm” value (SARS-CoV-2 PLpro E252A) was 44.10 ± 0.20 (0.75) ℃ and 45.88 ± 0.48 (2.53) ℃ and 47.86 ± 0.13 (4.51) ℃ and the Tm value (SARS-CoV-2 PLpro L253A) was 50.09 ± 0.49 °C. For the same compound, the Tm value (SARS-CoV-2 PLpro Y251A) was 47.78 ± 0.39 (2.41) ℃ and 46.46 ± 0.07 (1.09) ℃, the “△Tm” value (SARS-CoV-2 PLpro Y251A) was 47.78 ± 0.39 (2.41) ℃ and 46.46 ± 0.07 (1.09) ℃ and the Tm value (SARS-CoV-2 PLpro V303A) was 52.24 ± 0.13 (5.12) ℃. For the same compound, the “△Tm” value (SARS-CoV-2 PLpro V303A) was 52.24 ± 0.13 (5.12) ℃, the Tm value (SARS-CoV-2 PLpro D164A) was 44.58 ± 0.62 (2.03) ℃ and 45.84 ± 0.11 (3.29) ℃ and 46.83 ± 0.21 (4.28) ℃ and the “△Tm” value (SARS-CoV-2 PLpro D164A) was 44.58 ± 0.62 (2.03) ℃ and 45.84 ± 0.11 (3.29) ℃ and 46.83 ± 0.21 (4.28) ℃.
